Data from PubChem BioAssay (NCI).
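Cells were grown in 96-well plates and exposed to each compound for 48 hours at five concentrations; endpoints were interpolated linearly between bracketing concentrations, or set to the highest concentration if not reached. Abbreviation: GI50, concentration required for 50% inhibition of growth. Definition used: TGI = concentration required for complete inhibition of growth.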

Tests used:
Experiment in all cases: NCI anticancer screen, dose series, 48 h
786-0 renal = test system: 786-0 renal
A498 renal = test system: A498 renal
A549 NSCLC = test system: A549 NSCLC
ACHN renal = test system: ACHN renal
BT-549 breast = test system: BT-549 breast
CAKI-1 renal = test system: CAKI-1 renal
CCRF-CEM leukemia = test system: CCRF-CEM leukemia
COLO 205 colon = test system: COLO 205 colon
DU-145 prostate = test system: DU-145 prostate
EKVX NSCLC = test system: EKVX NSCLC
HCC-2998 colon = test system: HCC-2998 colon
HCT-116 colon = test system: HCT-116 colon
HCT-15 colon = test system: HCT-15 colon
HL-60(TB) leukemia = test system: HL-60(TB) leukemia
HOP-62 NSCLC = test system: HOP-62 NSCLC
HOP-92 NSCLC = test system: HOP-92 NSCLC
HS 578T breast = test system: HS 578T breast
HT29 colon = test system: HT29 colon
IGROV1 ovarian = test system: IGROV1 ovarian
KM12 colon = test system: KM12 colon
LOX IMVI melanoma = test system: LOX IMVI melanoma
M14 melanoma = test system: M14 melanoma
MALME-3M melanoma = test system: MALME-3M melanoma
MCF7 breast = test system: MCF7 breast
MDA-MB-231 breast = test system: MDA-MB-231 breast
MDA-MB-435 = test system: MDA-MB-435
MOLT-4 leukemia = test system: MOLT-4 leukemia
NCI-H226 lung = test system: NCI-H226 lung
NCI-H23 lung = test system: NCI-H23 lung
NCI-H522 lung = test system: NCI-H522 lung
NCI/ADR-RES ovarian = test system: NCI/ADR-RES ovarian
OVCAR-3 ovarian = test system: OVCAR-3 ovarian
OVCAR-5 ovarian = test system: OVCAR-5 ovarian
OVCAR-8 ovarian = test system: OVCAR-8 ovarian
PC-3 prostate = test system: PC-3 prostate
RPMI-8226 leukemia = test system: RPMI-8226 leukemia
RXF 393 renal = test system: RXF 393 renal
SF-268 CNS = test system: SF-268 CNS
SF-295 CNS = test system: SF-295 CNS
SF-539 CNS = test system: SF-539 CNS
SK-MEL-2 melanoma = test system: SK-MEL-2 melanoma
SK-MEL-28 melanoma = test system: SK-MEL-28 melanoma
SK-MEL-5 melanoma = test system: SK-MEL-5 melanoma
SK-OV-3 ovarian = test system: SK-OV-3 ovarian
SN12C renal = test system: SN12C renal
SNB-19 CNS = test system: SNB-19 CNS
SNB-75 CNS = test system: SNB-75 CNS
SR leukemia = test system: SR leukemia
SW-620 colon = test system: SW-620 colon
T-47D breast = test system: T-47D breast
TK-10 renal = test system: TK-10 renal
U251 CNS = test system: U251 CNS
UACC-257 melanoma = test system: UACC-257 melanoma
UACC-62 melanoma = test system: UACC-62 melanoma
UO-31 renal = test system: UO-31 renal

In the case of `Cc1cc(N/N=C/c2nc(-c3ccc(Br)cc3)oc2C)c2cc(Br)ccc2n1`, the GI50 (786-0 renal) is reported as 1.7 µM, the TGI (786-0 renal) is reported as 3.42 µM and the GI50 (A498 renal) is reported as 16.5 µM. For the same compound, the TGI (A498 renal) was 53.2 µM, the GI50 (A549 NSCLC) was 2.2 µM and the TGI (A549 NSCLC) was 5.2 µM. The GI50 (ACHN renal) was 2.86 µM, the TGI (ACHN renal) was 8.05 µM and the GI50 (BT-549 breast) was 10.7 µM. It also gave a TGI (BT-549 breast) of 23.3 µM, a GI50 (CAKI-1 renal) of 8.15 µM and a TGI (CAKI-1 renal) of 20.6 µM. The GI50 (CCRF-CEM leukemia) was 2 µM, the TGI (CCRF-CEM leukemia) was 29.7 µM and the GI50 (COLO 205 colon) was 4.38 µM. The TGI (COLO 205 colon) was 22.1 µM, the GI50 (DU-145 prostate) was 3.81 µM and the TGI (DU-145 prostate) was 13.9 µM. It also gave a GI50 (EKVX NSCLC) of 19.3 µM, a TGI (EKVX NSCLC) of 38.5 µM and a GI50 (HCC-2998 colon) of 7.43 µM. It also gave a TGI (HCC-2998 colon) of 20.8 µM, a GI50 (HCT-116 colon) of 3.52 µM and a TGI (HCT-116 colon) of 12.2 µM. The GI50 (HCT-15 colon) was 2.88 µM, the TGI (HCT-15 colon) was 10.2 µM and the GI50 (HL-60(TB) leukemia) was 2.24 µM. The TGI (HL-60(TB) leukemia) was 6.28 µM, the GI50 (HOP-62 NSCLC) was 2.32 µM and the TGI (HOP-62 NSCLC) was 5.84 µM. It also gave a GI50 (HOP-92 NSCLC) of 2.5 µM, a TGI (HOP-92 NSCLC) of 14.4 µM and a GI50 (HS 578T breast) of 4.21 µM. The TGI (HS 578T breast) was 26.2 µM, the GI50 (HT29 colon) was 3.14 µM and the TGI (HT29 colon) was 13.7 µM. The GI50 (IGROV1 ovarian) was 4.55 µM, the TGI (IGROV1 ovarian) was 20.2 µM and the GI50 (KM12 colon) was 2.25 µM. It also gave a TGI (KM12 colon) of 5.71 µM, a GI50 (LOX IMVI melanoma) of 1.99 µM and a TGI (LOX IMVI melanoma) of 4.3 µM. The GI50 (M14 melanoma) was 3.58 µM, the TGI (M14 melanoma) was 13.8 µM and the GI50 (MALME-3M melanoma) was 2.1 µM. The TGI (MALME-3M melanoma) was 4.48 µM, the GI50 (MCF7 breast) was 1.68 µM and the TGI (MCF7 breast) was 3.74 µM. For the same compound, the GI50 (MDA-MB-231 breast) was 2.95 µM, the TGI (MDA-MB-231 breast) was 10.1 µM and the GI50 (MDA-MB-435) was 2.25 µM. The TGI (MDA-MB-435) was 5.34 µM, the GI50 (MOLT-4 leukemia) was 2.65 µM and the TGI (MOLT-4 leukemia) was over 100 µM. For the same compound, the GI50 (NCI-H226 lung) was 17.9 µM, the TGI (NCI-H226 lung) was 48.5 µM and the GI50 (NCI-H23 lung) was 6.25 µM. The TGI (NCI-H23 lung) was 22.8 µM, the GI50 (NCI-H522 lung) was 2.21 µM and the TGI (NCI-H522 lung) was 5.62 µM. For the same compound, the GI50 (NCI/ADR-RES ovarian) was 2.71 µM, the TGI (NCI/ADR-RES ovarian) was 9.03 µM and the GI50 (OVCAR-3 ovarian) was 2.08 µM. For the same compound, the TGI (OVCAR-3 ovarian) was 4.25 µM, the GI50 (OVCAR-5 ovarian) was 10.7 µM and the TGI (OVCAR-5 ovarian) was 22.5 µM. It also gave a GI50 (OVCAR-8 ovarian) of 2.43 µM, a TGI (OVCAR-8 ovarian) of 6.66 µM and a GI50 (PC-3 prostate) of 2.68 µM. It also gave a TGI (PC-3 prostate) of 8.75 µM, a GI50 (RPMI-8226 leukemia) of 2.37 µM and a TGI (RPMI-8226 leukemia) of 6.39 µM. The GI50 (RXF 393 renal) was 5 µM, the TGI (RXF 393 renal) was 19.8 µM and the GI50 (SF-268 CNS) was 6.89 µM. It also gave a TGI (SF-268 CNS) of 46.2 µM, a GI50 (SF-295 CNS) of 17.3 µM and a TGI (SF-295 CNS) of 32.6 µM. The GI50 (SF-539 CNS) was 1.76 µM, the TGI (SF-539 CNS) was 3.5 µM and the GI50 (SK-MEL-2 melanoma) was 25.6 µM. It also gave a TGI (SK-MEL-2 melanoma) of 68.1 µM, a GI50 (SK-MEL-28 melanoma) of 2.39 µM and a TGI (SK-MEL-28 melanoma) of 6.26 µM. It also gave a GI50 (SK-MEL-5 melanoma) of 13.4 µM, a TGI (SK-MEL-5 melanoma) of 26.1 µM and a GI50 (SK-OV-3 ovarian) of 16.6 µM. It also gave a TGI (SK-OV-3 ovarian) of 30.2 µM, a GI50 (SN12C renal) of 2.1 µM and a TGI (SN12C renal) of 5.36 µM. It also gave a GI50 (SNB-19 CNS) of 3.87 µM, a TGI (SNB-19 CNS) of 23.4 µM and a GI50 (SNB-75 CNS) of 2.17 µM. It also gave a TGI (SNB-75 CNS) of 6.66 µM, a GI50 (SR leukemia) of 0.355 µM and a TGI (SR leukemia) of over 100 µM. The GI50 (SW-620 colon) was 2.04 µM, the TGI (SW-620 colon) was 4.81 µM and the GI50 (T-47D breast) was 1.88 µM. It also gave a TGI (T-47D breast) of 3.9 µM, a GI50 (TK-10 renal) of 1.97 µM and a TGI (TK-10 renal) of 3.93 µM. The GI50 (U251 CNS) was 1.94 µM, the TGI (U251 CNS) was 3.75 µM and the GI50 (UACC-257 melanoma) was 6.9 µM. It also gave a TGI (UACC-257 melanoma) of 21.9 µM, a GI50 (UACC-62 melanoma) of 1.91 µM and a TGI (UACC-62 melanoma) of 4.58 µM. It also gave a GI50 (UO-31 renal) of 13.9 µM and a TGI (UO-31 renal) of 26.8 µM.
